Assay [1] has as its system TNFα. Briefly: IRAK4 Monocyte TNFα Cell Based Assay. The note with it: Monocyte; cryopreserved human monocytes, 50 pg/ml LPS, compound 1 hour pre-treatment, 4 hours stimulation, TNFα by TR-FRET. The gist of the method: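 Monocytes at 5,000 cells/well were pre-treated with compound for 1 h at 37 °C (0.1% DMSO final), then stimulated with 50 pg/ml LPS for 4 h. Secreted TNFα in supernatant was measured by TR-FRET (665/615 ratio), expressed as % control relative to unstimulated and stimulated cells.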
(In general: In TR-FRET formats the signal depends on donor and acceptor labels being close together.)

The target of assay [2] is IRAK4 (Homo sapiens (Human), UniProt Q9NWZ3). Put plainly: IRAK4 Biochemical Assay (TR-FRET/HTRF). The conditions noted are these: IRAK4 enzyme 0.75 nM, 500 μM ATP, 2 μM STK1 peptide, 120 min. An outline of the steps: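 Recombinant IRAK4 (0.75 nM) with 2 µM STK1 peptide and 500 µM ATP in pH 7.0 HEPES/Mg buffer; compound preincubated 15 min with enzyme and peptide, then 120 min reaction at room temperature. HTRF readout: cryptate anti-phospho-peptide antibody, 665/615 nm ratio; % inhibition against no-inhibitor and saturating-staurosporine controls.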

From US11572362B2, “Pyrrolo[1,2-b]pyridazine derivatives” (Gilead Sciences, Inc., priority 2018, dated 2023) come the findings set out here.

IRAK4, sequence (Q9NWZ3 whole entry): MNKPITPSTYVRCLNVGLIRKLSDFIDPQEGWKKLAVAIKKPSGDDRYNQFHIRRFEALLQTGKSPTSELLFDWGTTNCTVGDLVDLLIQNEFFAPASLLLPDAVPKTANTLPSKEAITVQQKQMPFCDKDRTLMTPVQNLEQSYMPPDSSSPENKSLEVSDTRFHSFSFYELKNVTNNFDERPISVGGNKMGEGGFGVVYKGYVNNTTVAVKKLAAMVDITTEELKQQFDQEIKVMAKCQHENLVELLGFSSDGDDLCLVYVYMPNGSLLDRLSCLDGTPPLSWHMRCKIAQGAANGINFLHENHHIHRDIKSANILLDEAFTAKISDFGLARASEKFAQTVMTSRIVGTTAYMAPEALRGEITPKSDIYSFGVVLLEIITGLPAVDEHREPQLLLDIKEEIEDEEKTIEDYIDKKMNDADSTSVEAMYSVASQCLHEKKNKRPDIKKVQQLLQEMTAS

Consider `Cc1noc([C@H]2CC[C@H](Nc3cc(-c4ccc5cc(C#N)cnn45)ncc3C(=O)NC[C@@H](F)C(C)(C)O)CC2)n1` [Compound 45, 6-(3-cyanopyrrolo[1,2-b]pyridazin-7-yl)-N-((R)-2-fluoro-3-hydroxy-3-methylbutyl)-4-(((1r,4R)-4-(3-methyl-1,2,4-oxadiazol-5-yl)cyclohexyl)amino)nicotinamide], for which, in assay [1], the EC50 is 85 nM. Also, inhibition in assay [2] was half-maximal at 2 nM (IC50).
In the same order, the values of `CC(C)(O)[C@H](F)CNC(=O)c1cnc(-c2ccc3cc(C#N)cnn23)cc1N[C@H]1CC[C@H](c2cnn(CC(F)F)c2)CC1` [Compound 5, 6-(3-cyanopyrrolo[1,2-b]pyridazin-7-yl)-4-(((1r,4R)-4-(1-(2,2-difluoroethyl)-1H-pyrazol-4-yl)cyclohexyl)amino)-N-((R)-2-fluoro-3-hydroxy-3-methylbutyl)nicotinamide] are 22 nM and less than 1 nM.
Turning to `CC(C)(O)[C@H](F)CNC(=O)c1cnc(-c2ccc3cc(C#N)cnn23)cc1N[C@H]1CC[C@H](c2cccnc2)CC1` [Compound 55, 6-(3-cyanopyrrolo[1,2-b]pyridazin-7-yl)-N-((R)-2-fluoro-3-hydroxy-3-methylbutyl)-4-(((1r,4R)-4-(pyridin-3-yl)cyclohexyl)amino)nicotinamide], the EC50 in assay [1] worked out at 25 nM. This compound also displayed a 50% inhibitory concentration (IC50) in assay [2] of less than 1 nM.
Take `CC(C)(O)[C@H](F)CNC(=O)c1cnc(-c2ccc3cc(C#N)cnn23)cc1N[C@H]1CC[C@H](c2nc(C(F)F)co2)CC1` [Compound 46, 6-(3-cyanopyrrolo[1,2-b]pyridazin-7-yl)-4-(((1r,4R)-4-(4-(difluoromethyl)oxazol-2-yl)cyclohexyl)amino)-N-((R)-2-fluoro-3-hydroxy-3-methylbutyl)nicotinamide]: in assay [1], the EC50 came to 124 nM. Besides, the IC50 in assay [2] is 2 nM.
As for `Cc1nc([C@H]2CC[C@H](Nc3cc(-c4ccc5cc(C#N)cnn45)ncc3C(=O)NC[C@@H](F)C(C)(C)O)CC2)no1` [Compound 44, 6-(3-cyanopyrrolo[1,2-b]pyridazin-7-yl)-N-((R)-2-fluoro-3-hydroxy-3-methylbutyl)-4-(((1r,4R)-4-(5-methyl-1,2,4-oxadiazol-3-yl)cyclohexyl)amino)nicotinamide], in assay [1], the EC50 was found to be 28 nM. Besides, the 50% inhibitory concentration (IC50) in assay [2] was less than 1 nM.
The matching figures for `CC(C)(O)[C@H](F)CNC(=O)c1cnc(-c2ccc3cc(C#N)cnn23)cc1N[C@H]1CC[C@H](c2cn(C(F)F)cn2)CC1` [Compound 17, 6-(3-cyanopyrrolo[1,2-b]pyridazin-7-yl)-4-(((1r,4R)-4-(1-(difluoromethyl)-1H-imidazol-4-yl)cyclohexyl)amino)-N-((R)-2-fluoro-3-hydroxy-3-methylbutyl)nicotinamide]: 33 nM and 1 nM.
The matching figures for `CC(C)(O)[C@H](F)CNC(=O)c1cnc(-c2ccc3cc(C#N)cnn23)cc1NC1CCC(c2cnc(C(F)F)nc2)CC1` (stereo partly drawn) [Compound 59, (R)-6-(3-cyanopyrrolo[1,2-b]pyridazin-7-yl)-4-((4-(2-(difluoromethyl)pyrimidin-5-yl)cyclohexyl)amino)-N-(2-fluoro-3-hydroxy-3-methylbutyl)nicotinamide]: 21 nM and 1 nM.
In the case of `CCn1cc([C@H]2CC[C@H](Nc3cc(-c4ccc5cc(C#N)cnn45)ncc3C(=O)NC[C@@H](F)C(C)(C)O)CC2)cn1` [Compound 12, 6-(3-cyanopyrrolo[1,2-b]pyridazin-7-yl)-4-(((1r,4R)-4-(1-ethyl-1H-pyrazol-4-yl)cyclohexyl)amino)-N-((R)-2-fluoro-3-hydroxy-3-methylbutyl)nicotinamide], in assay [1], the EC50 was 44 nM. The compound also showed an IC50 in assay [2] of 2 nM.
The matching figures for `CC(C)(O)[C@H](F)CNC(=O)c1cnc(-c2ccc3cc(C#N)cnn23)cc1N[C@H]1CC[C@H](n2cnnn2)CC1` [Compound 38, 4-(((1r,4R)-4-(1H-tetrazol-1-yl)cyclohexyl)amino)-6-(3-cyanopyrrolo[1,2-b]pyridazin-7-yl)-N-((R)-2-fluoro-3-hydroxy-3-methylbutyl)nicotinamide]: 24 nM and less than 1 nM.
With `CC(C)(O)[C@H](F)CNC(=O)c1cnc(-c2ccc3cc(C#N)cnn23)cc1NC1CCC(c2ccncc2)CC1` (single isomer, unassigned) [Compound 56], the EC50 in assay [1] came out at 221 nM. In addition, the IC50 in assay [2] was 9 nM.
The matching figures for `CC(C)(O)[C@H](F)CNC(=O)c1cnc(-c2ccc3cc(C#N)cnn23)cc1N[C@H]1CC[C@H](c2ccn(C(F)F)n2)CC1` [Compound 8, 6-(3-cyanopyrrolo[1,2-b]pyridazin-7-yl)-4-(((1r,4R)-4-(1-(difluoromethyl)-1H-pyrazol-3-yl)cyclohexyl)amino)-N-((R)-2-fluoro-3-hydroxy-3-methylbutyl)nicotinamide]: 36 nM and 1 nM.
On to `CC(C)(O)[C@H](F)CNC(=O)c1cnc(-c2ccc3cc(C#N)cnn23)cc1NC1CCC(c2cnc(C(F)F)s2)CC1` (stereo partly drawn) [Compound 51, (R)-6-(3-cyanopyrrolo[1,2-b]pyridazin-7-yl)-4-((4-(2-(difluoromethyl)thiazol-5-yl)cyclohexyl)amino)-N-(2-fluoro-3-hydroxy-3-methylbutyl)nicotinamide], for which the 50% effective concentration (EC50) in assay [1] came to 76 nM. This compound also showed a 50% inhibitory concentration (IC50) in assay [2] of 3 nM.
The matching figures for `CC(C)(O)[C@H](F)CNC(=O)c1cnc(-c2ccc3cc(C#N)cnn23)cc1N[C@H]1CC[C@H](n2cc(C(F)(F)F)cn2)CC1` [Compound 30, 6-(3-cyanopyrrolo[1,2-b]pyridazin-7-yl)-N-((R)-2-fluoro-3-hydroxy-3-methylbutyl)-4-(((1r,4R)-4-(4-(trifluoromethyl)-1H-pyrazol-1-yl)cyclohexyl)amino)nicotinamide]: 136 nM and 4 nM.
The matching figures for `CC(C)(O)[C@H](F)CNC(=O)c1cnc(-c2ccc3cc(C#N)cnn23)cc1NC1CCC(F)(c2nnc(C(F)F)o2)CC1` (stereo partly drawn) [Compound 43, (R)-6-(3-cyanopyrrolo[1,2-b]pyridazin-7-yl)-4-((4-(5-(difluoromethyl)-1,3,4-oxadiazol-2-yl)-4-fluorocyclohexyl)amino)-N-(2-fluoro-3-hydroxy-3-methylbutyl)nicotinamide]: 39 nM and less than 1 nM.
With `CC(C)(O)[C@H](F)CNC(=O)c1cnc(-c2ccc3cc(C#N)cnn23)cc1N[C@H]1CC[C@H](c2cncnc2)CC1` [Compound 57, 6-(3-cyanopyrrolo[1,2-b]pyridazin-7-yl)-N-((R)-2-fluoro-3-hydroxy-3-methylbutyl)-4-(((1r,4R)-4-(pyrimidin-5-yl)cyclohexyl)amino)nicotinamide], in assay [1], the EC50 came out at 11 nM. Also, the concentration for half-maximal inhibition (IC50) in assay [2] worked out at 2 nM.
In the case of `CC(C)(O)[C@H](F)CNC(=O)c1cnc(-c2ccc3cc(C#N)cnn23)cc1N[C@H]1CC[C@H](c2cnn(CC3CC3)c2)CC1` [Compound 13, 6-(3-cyanopyrrolo[1,2-b]pyridazin-7-yl)-4-(((1r,4R)-4-(1-(cyclopropylmethyl)-1H-pyrazol-4-yl)cyclohexyl)amino)-N-((R)-2-fluoro-3-hydroxy-3-methylbutyl)nicotinamide], the half-maximal effective concentration (EC50) in assay [1] came to 169 nM. For the same compound, the IC50 in assay [2] was found to be 2 nM.
Take `CC(C)(O)[C@H](F)CNC(=O)c1cnc(-c2ccc3cc(C#N)cnn23)cc1N[C@H]1CC[C@H](n2ccc(C(F)F)n2)CC1` [Compound 23, 6-(3-cyanopyrrolo[1,2-b]pyridazin-7-yl)-4-(((1r,4R)-4-(3-(difluoromethyl)-1H-pyrazol-1-yl)cyclohexyl)amino)-N-((R)-2-fluoro-3-hydroxy-3-methylbutyl)nicotinamide]: the concentration giving a half-maximal response (EC50) in assay [1] is 38 nM. In assay [2], the IC50 came out at 1 nM.
In the same order, the values of `Cc1ncc(C2CCC(Nc3cc(-c4ccc5cc(C#N)cnn45)ncc3C(=O)NC[C@@H](F)C(C)(C)O)CC2)cn1` (stereo partly drawn) [Compound 58, (R)-6-(3-cyanopyrrolo[1,2-b]pyridazin-7-yl)-N-(2-fluoro-3-hydroxy-3-methylbutyl)-4-((4-(2-methylpyrimidin-5-yl)cyclohexyl)amino)nicotinamide] are 112 nM and 4 nM.
For `CC(C)(O)[C@H](F)CNC(=O)c1cnc(-c2ccc3cc(C#N)cnn23)cc1N[C@H]1CC[C@H](c2ccccn2)CC1` [Compound 54, 6-(3-cyanopyrrolo[1,2-b]pyridazin-7-yl)-N-((R)-2-fluoro-3-hydroxy-3-methylbutyl)-4-(((1r,4R)-4-(pyridin-2-yl)cyclohexyl)amino)nicotinamide], the half-maximal effective concentration (EC50) in assay [1] was determined as 18 nM. In assay [2], this compound gave a concentration for half-maximal inhibition (IC50) of less than 1 nM.
In the same order, the values of `CC(C)(O)[C@H](F)CNC(=O)c1cnc(-c2ccc3cc(C#N)cnn23)cc1N[C@H]1CC[C@H](n2nc(C(F)F)cc2C(F)F)CC1` [Compound 29, 4-(((1r,4R)-4-(3,5-bis(difluoromethyl)-1H-pyrazol-1-yl)cyclohexyl)amino)-6-(3-cyanopyrrolo[1,2-b]pyridazin-7-yl)-N-((R)-2-fluoro-3-hydroxy-3-methylbutyl)nicotinamide] are 381 nM and 7 nM.
In the same order, the values of `CC(C)(O)[C@H](F)CNC(=O)c1cnc(-c2ccc3cc(C#N)cnn23)cc1N[C@H]1CC[C@H](c2cc(C(F)F)no2)CC1` [Compound 47, 6-(3-cyanopyrrolo[1,2-b]pyridazin-7-yl)-4-(((1r,4R)-4-(3-(difluoromethyl)isoxazol-5-yl)cyclohexyl)amino)-N-((R)-2-fluoro-3-hydroxy-3-methylbutyl)nicotinamide] are 89 nM and 2 nM.

The term EC50 denotes the concentration that produces a half-maximal response. For orientation: IC50 means the concentration that gives 50% inhibition. A low value points to higher potency.
